Consider 16 compounds from article PMC11084632, “Pharmacological Evaluation of Cannabinoid Receptor Modulators Using GRABeCB2.0 Sensor” (International Journal of Molecular Sciences, 2024).

Like-named read-outs stand apart in the source and are kept apart here. Where only a bound is given, the exact number is not on record here.

Test [1] has as its target CB1 receptor. To be noted: cited from earlier work.
Test [2] concerns the target CB1R. To be noted: cited from earlier work.
Test [3] deals with T1, GRABeCB2.0 sensor (Homo sapiens, UniProt P21554, S383T, form not given). To be noted: increasing concentrations; cited from earlier work.
T1 sequence (P21554 whole entry S383T, looked up, form open): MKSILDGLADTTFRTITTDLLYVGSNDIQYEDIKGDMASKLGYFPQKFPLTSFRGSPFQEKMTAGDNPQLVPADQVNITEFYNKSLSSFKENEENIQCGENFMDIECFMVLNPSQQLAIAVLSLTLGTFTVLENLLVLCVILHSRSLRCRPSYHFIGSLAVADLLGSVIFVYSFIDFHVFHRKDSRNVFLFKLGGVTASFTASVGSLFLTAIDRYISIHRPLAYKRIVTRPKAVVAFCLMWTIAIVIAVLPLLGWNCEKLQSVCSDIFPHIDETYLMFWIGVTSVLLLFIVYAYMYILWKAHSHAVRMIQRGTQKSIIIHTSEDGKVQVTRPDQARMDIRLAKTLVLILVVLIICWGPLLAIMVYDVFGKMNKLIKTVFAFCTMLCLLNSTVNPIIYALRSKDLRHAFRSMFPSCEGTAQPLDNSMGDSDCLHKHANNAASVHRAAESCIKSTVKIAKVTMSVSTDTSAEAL
Test [4] deals with T1, GRABeCB2.0 sensor. The format is cell-based. To be noted: for Effect on CP55940 fluorescence signal/maximal fluorescence: modulator 1 μM, varying CP55940. The procedure:
For reported allosteric modulators, the binding assay was modified to test the ligand for basal activity, followed by the addition of the agonist, similar to the antagonist assay. […] The compound of interest was varied across concentrations ranging (as the case may be) from 1 nM, 3 nM, 10 nM, 30 nM, 100 nM, 300 nM, 1 μM, and 10 μM and performed in triplicate. The concentration of the compound depended on the modulator itself. The concentrations calculated were the final concentration inside the well of the 96-well plate, along with the 1% DMSO and 0.5 mg/mL BSA (See Supplementary Materials, Figure S1).
Statistical Methods: All GRABeCB2.0 fluorescent signals (in cases noted) are expressed as normalized ΔF/F0 as calculated for the fluorescence assay in the PHERAstar FSX Plate reader. EC50/IC50 values were calculated using GraphPad Prism 9 by fitting data to a nonlinear regression model with normalized variable slope (four parameters, normalized where indicated) or using three-parameter response. Data represent mean ± SEM from a minimum of at least three independent experiments performed in triplicates.

The target of test [5] is T1, GRABeCB2.0 sensor. The format is cell-based. The source says:
(§1) Stable eCB2.0 sensor cell line: A stable sensor cell line was established in HEKtsA201 cells (Sigma-Aldrich, St. Louis, MO, USA) using the PiggyBac Transposon-based system (SBI, Palo Alto, CA, USA). Briefly, the open reading frame of the eCB2.0 sensor from eCB2.0 to C1^20 was cloned into the PB514B shuttle vector using In Fusion cloning (Takara, San Jose, CA, USA). The modified shuttle sequence was obtained with Sanger sequencing (Psomagen, Rockville, MD, USA) and verified (MacVector, Apex, NC, USA). HEKtsA201 cells were maintained in DMEM (Thermo Fisher, Waltham, MA, USA: Gibco #10569-010) supplemented with 10% fetal bovine serum (Gibco #A31605-01) and 1% penicillin/streptomycin (Gibco #15140-122) at 37 °C and 8% CO2. Cells were plated on 12-well tissue culture plates at approximately 50% confluency. This low cell density was used to avoid overgrowth of the cells during the delay between transfection and selection for stable integration. After 3 h, the eCB2.0 shuttle was co-transfected at a plasmid mass ratio of 10:1 with the SBI Transposase vector (PB210PA) using deacylated PEI [71]. All transfected wells were checked the next day for expression of the sensor by presence of basal cpeGFP fluorescence. […] Wells were selected for integration beginning at 4 days post transfection with […] Puromycin (Gibco #A11138-03). Selection was continued throughout all passages of the stable line. Cells were transferred to T25 (25 cm^2) tissue culture flasks after 10 to 14 days of selection.
Assay Procedure: The DMEM solution was removed from the T25 flat-sided cell culture flask by decantation. […] A total of 7 mL of fresh DMEM was added, and cells were gently pipetted to remove any remaining cells from the flask wall. The total volume (10 mL) was transferred to a 15 mL Falcon tube and centrifuged at 800× g for 4 min at 23 °C. Upon completion of centrifugation, the supernatant was removed and discarded, leaving behind a small pellet of cells that were resuspended in 4 mL of fresh DMEM. The cell suspension was mixed in a 1:1 ratio with 0.4% TrypanBlue ([…] each) and […] solution was added to each side of a Countess Cell Counting Chamber and inserted into the Countess II Automated Cell Counter (Thermo Fisher, Waltham, MA, USA). The concentration of cells as adjusted to 0.7–1.0 million cells/mL with DMEM complete media and […] was added to the desired wells of a clear bottom black plastic tissue culture treated 96-well plate. The plate was incubated at 37 °C and 8% CO2 for a 24–48 h period. After incubation, the […] DMEM buffer was removed and replaced with […] of DPBS buffer containing calcium and magnesium (Gibco #14040-133). After the addition of the DPBS buffer, a baseline reading of the cells was taken using the PHERAstar FSX microplate reader (BMG/Labtech, Cary, NC, USA) to establish the F0 or initial fluorescence (see Figure 1A,B).
When running the assay for an agonist, […] of the compound and […] of additional DPBS buffer was added to the wells. A concentration curve was made for the modulator with the final concentrations in the wells holding the cells ranging from 1 pM to 10 mM with 1% DMSO BSA in a total volume of […]. […] In either assay, the cannabinoid ligands were added, followed by incubation of the compound on the cells at 37 °C for 5 min before taking a fluorescence reading using the PHERAstar FSX microplate reader equipped with a GFP filter cube module (Ex. 485 nm/Em. 520 nm). The recorded values were the F or final fluorescence.
For reported allosteric modulators, the binding assay was modified to test the ligand for basal activity, followed by the addition of the agonist, similar to the antagonist assay.

Test [6] addresses T1, GRABeCB2.0 sensor. It is filed as cell-based. To be noted: for EC50: HEK293 cells, without BSA, ΔF/F0 4-5 min, read-out: EC50 at inducing GRABeCB2.0 fluorescent signal; for Effect on GRABeCB2.0 basal fluorescence: no agonist.
Description: as §1
Assay Procedure: The DMEM solution was removed from the T25 flat-sided cell culture flask by decantation. […] A total of 7 mL of fresh DMEM was added, and cells were gently pipetted to remove any remaining cells from the flask wall. The total volume (10 mL) was transferred to a 15 mL Falcon tube and centrifuged at 800× g for 4 min at 23 °C. […] After the addition of the DPBS buffer, a baseline reading of the cells was taken using the PHERAstar FSX microplate reader (BMG/Labtech, Cary, NC, USA) to establish the F0 or initial fluorescence (see Figure 1A,B).
When running the assay for an agonist, […] of the compound and […] of additional DPBS buffer was added to the wells. […] In either assay, the cannabinoid ligands were added, followed by incubation of the compound on the cells at 37 °C for 5 min before taking a fluorescence reading using the PHERAstar FSX microplate reader equipped with a GFP filter cube module (Ex. 485 nm/Em. 520 nm). The recorded values were the F or final fluorescence.
Statistical Methods: All GRABeCB2.0 fluorescent signals (in cases noted) are expressed as normalized ΔF/F0 as calculated for the fluorescence assay in the PHERAstar FSX Plate reader.

[7] abbreviates: read-out: GRABeCB2.0 IC50 0.5 mg/mL BSA.
The mark [8] stands for this setting: reported, read-out: binding Ki (reported).

In general, EC50 refers to the concentration giving half of the maximal effect. As a reminder, the Ki is the dissociation constant of the complex between target and ligand, obtained from inhibition or displacement.

Turning to `CCCCC/C=C\C/C=C\C/C=C\C/C=C\CCCC(=O)NCCCl` [ACEA, (5Z,8Z,11Z,14Z)-N-(2-chloroethyl)icosa-5,8,11,14-tetraenamide], the EC50 in test [1] (read-out: reported EC50 for the CB1 receptor) is 51 nM. The inhibition constant Ki was 1.4 nM in test [2] (Supplementary Table 1, # literature reported values, read-out: CB1R wild-type binding Ki) and 1.5 to 5 nM in test [2] (read-out: Ki for CB1 receptor).
`C=C(C)[C@@H]1CCC(C)=C[C@H]1c1c(O)cc(CCCCC)cc1O` [CBD, cannabidiol]: the “Effect on basal GRABeCB2.0 fluorescent signal (reported)” value in test [3] was “did not affect basal GRABeCB2.0 fluorescent signal”.
Regarding `O=[N+]([O-])C[C@H](c1ccccc1)c1c(-c2ccccc2)[nH]c2ccccc12` [GAT228], the “Effect on CP55940 fluorescence signal/maximal fluorescence” value in test [4] was “did not shift the fluorescence signal”.
In the case of `O=[N+]([O-])C[C@@H](c1ccccc1)c1c(-c2ccccc2)[nH]c2ccccc12` [GAT229], the “Effect on CP55940 fluorescence signal/maximal fluorescence” value in test [4] is recorded as “increased the maximal fluorescence”. Moreover, the “apparent α (Schild-like analysis)” value in test [4] (range of CP55940 concentrations) is listed as above 1. Besides, the “Effect on CP55940-activated GRABeCB2.0 fluorescence” value in test [5] is “more potent enhancer of sensor fluorescence than GAT228”.
In the case of `CC(C)[C@H](N=C(NS(=O)(=O)c1ccc(Cl)cc1)N1C[C@H](c2ccccc2)C(c2ccc(Cl)cc2)=N1)C(N)=O` [JD5037], the Ki in test [2] (read-out: binding Ki on CB1R) was 0.5 nM. Besides, the IC50 in test [5] (read-out: GRABeCB2.0 IC50) came to 148 ± 12 nM; in test [5] (setting [7]) it was 29 ± 3.5 nM.
For `C/C(N)=N\C(=N/S(=O)(=O)c1ccc(C(F)(F)F)cc1)N1C[C@H](c2ccccc2)C(c2ccc(Cl)cc2)=N1` [MRI-1867], the IC50 in test [1] (reported, read-out: functional potency IC50 (reported)) is 40 nM; in test [5] (read-out: GRABeCB2.0 IC50) it was 105 ± 5.4 nM; in test [5] (setting [7]), 90 ± 5 nM. In addition, the inhibitory constant (Ki) in test [2] (setting [8]) was 2.6 nM.
In the case of `CC(=O)NC(N)=NC(=NS(=O)(=O)c1ccc(C(F)(F)F)cc1)N1C[C@H](c2ccccc2)C(c2ccc(Cl)cc2)=N1` [MRI-1891], in test [1] (printed after 'bias toward inhibition of the β-arrestin pathway, over G-protein signaling pathway', read-out: IC50 (reported)), the IC50 was 6 nM. For the same compound, the Ki in test [2] (setting [8]) is 0.5 nM.
For `CC(=O)OCCn1c(C)c(C)s/c1=N\C(=O)C1C(C)(C)C1(C)C` [MRI-2594], the EC50 in test [6] amounted to 527 ± 27 nM.
Still for that read-out and setting: next, `CC(=O)OCCn1c(=NC(=O)C2C(C)(C)C2(C)C)sc2cc(C)ccc21` [MRI-2687]: 1300 nM.
As for `CCc1c(C(=O)NCCc2ccc(N3CCCCC3)cc2)[nH]c2ccc(Cl)cc12` [ORG27569], the “Effect on GRABeCB2.0 basal fluorescence” value in test [6] is recorded as “did not significantly alter basal fluorescence”. Further, in test [5], the “Effect on CP55940-activated GRABeCB2.0 fluorescence” value is on record as “void of any concentration-dependent effects”. Also, the IC50 in test [5] (read-out: IC50 as weak antagonists (normalized curve)) was 787 nM.
On to `CCNC1(C(N)=O)CCN(c2ncnc3c2nc(-c2ccccc2Cl)n3-c2ccc(Cl)cc2)CC1` [Otenabant], for which the IC50 in test [1] (read-out: reported IC50) is […]. The inhibition constant Ki in test [2] (read-out: binding Ki for CB1R) was 0.7 nM.
Regarding `CC(=O)[C@H]1CC[C@H]2[C@@H]3CC=C4C[C@@H](O)CC[C@]4(C)[C@H]3CC[C@]12C` [Pregnenolone], in test [6], the “Effect on GRABeCB2.0 basal fluorescence” value was “did not significantly alter basal fluorescence”. Also, the “Effect on CP55940-activated GRABeCB2.0 fluorescence” value in test [5] is “void of any concentration-dependent effects”. The “Effect on 2-AG-activated GRABeCB2.0 fluorescence” value in test [5] (20 μM 2-AG) is given as “this behavior could be replicated”.
Consider `CC(=O)NC(=N)NC(=NS(=O)(=O)c1ccc(Cl)cc1)N1C[C@@H](c2ccccc2)C(c2ccc(Cl)cc2)=N1` [R-MRI-1776], for which, in test [5], the “CB1 binding of R-enantiomers on the sensor” value is listed as “weak CB1 binding”.
On the same count and under the same terms, next, `CC(=O)NC(=N)NC(=NS(=O)(=O)c1ccc(C(F)(F)F)cc1)N1C[C@@H](c2ccccc2)C(c2ccc(Cl)cc2)=N1` [R-MRI-1891]: “weak CB1 binding”.
In the case of `C[C@H](NC(=O)C(C)(C)Oc1ccc(C(F)(F)F)cn1)[C@@H](Cc1ccc(Cl)cc1)c1cccc(C#N)c1` [Taranabant], the Ki in test [2] (read-out: reported Ki) was 0.13 nM.
Consider Pregnenolone sulfate, for which the “Effect on CP55940-activated GRABeCB2.0 fluorescence” value in test [5] is given as “extinguished CP fluorescence but showed no concentration-dependent effects”.
